The numbers were not newly measured in US8486463B1, “Cosmetic composition comprising aloe vera and caprylyl salicylic acid and method of making” (L'Oreal, priority 2012, dated 2013), which cites them from elsewhere.

For the data set the following is noted: based on temperature and purity level.

Turning to `O` [water], the pH is 7 and the surface tension is reported as 55.73 dyne/cm.
